From patent publication US20250110116A1, “COMPOSITIONS AND METHODS FOR PRODUCING HAIR FOLLICLE STEM CELLS” (The Rockefeller University, priority 2023, published 2025)
Entries after “also recorded” stand apart in the source; their conditions may differ. Where two headings read alike, the source gives them in different places.

Assays:
cultured HFSCs [1] = assay: Directed differentiation of cultured HFSCs to HS and IRS lineages (Cux1 reporters, GATA3, HOXC13); assay type: cell-based, mouse; conditions: for hair shaft (HS) differentiation (HOXC13, HS reporter): WNT-BMP co-activated HFSCs
HFSCs [2] = assay: Wound repair with lineage-traced HFSCs, topical treatment; assay type: in vivo, mice
Source text: The recruitment of HFSCs to epidermal repair is a multistep process, involving first the entry of HFSCs into a lineage plasticity state, second the fate switch to an epidermal fate and then later, the rebalancing of stem cell numbers across tissue compartments. Given the need for atRA to drive hair lineage determination, we analyzed whether elevating atRA after injury might diminish the ability of HFSCs to enter a state of lineage plasticity after wounding. To test this, we administered topical atRA immediately after wounding to telogen-phase, lineage marked HFSCs. While entry into the hair cycle proceeded normally after injury, topical atRA led to a stem cell imbalance (FIG. 5 Panel D).
To assess the consequences of promoting lineage plasticity following injury, we placed mice on a vitamin A-deficient diet that depleted the skin of retinol without affecting body mass (FIG. 15 Panel E). In this case, following tissue injury, mobilized HFSCs entered a prolonged stated of dual lineage potential well into the later stages of repair (FIG. 5 Panel D). […] By day 30, vitamin A deficiency also elevated the fraction of stem cells that contributed to the repaired epidermis and diminished the number remaining in the bulge.

HFSCs [3] = assay: HFSC growth, survival and colony formation in 3D Matrigel culture; assay type: cell-based, mouse; conditions: for concentration at which maximal rates of cell proliferation were reached: 3D Matrigel culture, standard HFSC media
Klf5-EGFP = Klf5-EGFP lineage plasticity reporter in 3D cultured HFSCs (flow cytometry); assay type: cell-based, mouse; conditions: for reduction of Klf5-EGFP levels: atRA and PKCi tested in combination; for effect on lineage plasticity (Klf5-EGFP levels): screen of small molecule library, serum-free 3D culture; for Klf5-EGFP levels: media modification
cultured HFSCs [4] = assay: Marker expression in cultured HFSCs (immunofluorescence, immunoblot, qPCR); assay type: cell-based, mouse; conditions: for resolution of lineage plasticity and HFSC behavior: combination of atRA and PKCi, 3D culture
Source text: We first explored these two hits against the backdrop of our more physiological (serum-free) conditions, where SOX9 and KLF5 had already partitioned their expression peripherally and internally within colonies, respectively (FIG. 1 Panel C).
Immunoblot, qPCR and additional immunofluorescence analyses strengthened the evidence that PKCi and atRA resolve lineage plasticity (FIG. 1 Panel D, FIG. S2, Panels C to E).

cultured HFSCs [5] = assay: HFSC quiescence / bulge identity in culture (Nfatc1, Cxcl14 reporter); assay type: cell-based, mouse
Source text: In vivo, HFSCs can be divided into two populations: those in a more quiescent state found in the bulge and ones primed for activation, located in the ‘hair germ’ (HG) just below the bulge. As BMP6 is produced by the inner bulge and responsible for maintaining HFSCs in their quiescent state (FIG. 2 Panel A), we continued to utilize a described culture system by assessing how these factors impact HFSC activation and fate commitment.
BMPs triggered cell cycle exit (FIG. 9 Panel A).
(§1) ERKi was also excluded because of its known ability to regulate the initiation of hair growth. Both atRA (10 nM-1 μM) and PKCi (0.1-10 μM) were titrated to determine the optimal concentration to reduce lineage plasticity and promote physiological HFSC behavior. […] In contrast, BMP6-mediated Nfatc1 mRNA upregulation (quiescence marker) was maximal at 10 nM. Therefore, the amount of atRA should be modified in HFSC cultures to support the desired cell fate in combination with these and possibly other growth factors.

human keratinocytes = assay: Human keratinocyte culture under the described conditions, 7 days; assay type: cell-based; conditions: atRA plus PKCi added to B-27 media
Source text: This example relates to FIG. 21. With respect to FIG. 21, to assess the translatability of the described methodology enabling the faithful recapitulation of hair follicle stem cell (HFSC) identity in culture to humans, we introduced the described conditions developed in the mouse to human keratinocytes.

cultured HFSCs [6] = assay: Rspo/WNT-mediated HFSC activation in culture (TCF/LEF, Lgr5, EdU); assay type: cell-based, mouse
Source text: In vitro, none of the four WNT-regulating TCF/LEF transcription factors were expressed under standard serum conditions or in serum-free conditions, even with PKCi. […] These HFSC-associated TFs were also stimulated by BMP6, consistent with a raised threshold for activating WNT during quiescence (FIG. 10, Panels A and B). […] Rspo-mediated HFSC proliferation was sensitive to atRA with the greatest cooperative effect seen at 10-fold higher the atRA concentration that had been optimal for quiescence-related features of stemness (FIG. 2 Panel E, FIG. 10 Panel D).
as §1

CD34^+ HFSCs = assay: Topical treatment of mouse back skin during resting phase of the hair cycle; assay type: in vivo, mice; conditions: telogen
HFSCs [7] = assay: Transplantation of precultured HFSCs with dermal fibroblasts onto mouse back skins; assay type: in vivo; conditions: HFSCs precultured in serum-free media primed with either atRA, BMP6 or Rspo
Source text: By overcoming the hurdles to lineage progression in vitro, we challenged the in vivo regenerative potential of the described lineage-specified cell populations. YFP-labeled progenitors from each group were combined with allogenic dermal fibroblasts and transplanted onto mouse back skins.

hair follicle = assay: Topical treatment of mouse back skin at mid-anagen (HF downgrowth)
[8] = daily topical during HF downgrowth

## Cc1ccc(C2=CCC(C)(C)c3ccc(C#Cc4ccc(C(=O)O)cc4)cc32)cc1 [AGN193109]
Cultured HFSCs [1]
  hair shaft (HS) differentiation (HOXC13, HS reporter): uniquely promoted
Cultured HFSCs [1]; listed as RARi
  hair shaft (HS) differentiation (HOXC13, HS reporter): primarily increased HOXC13 expression and enhancer epicenter reporter activity for the HS lineage
HFSCs [2]; topical
  HF downgrowth and epidermal flux following wounding: reducing HF downgrowth and promoting epidermal upward flux

## [Ca+2].[Cl-].[Cl-] [CaCl2, Calcium Chloride]
HFSCs [3]
  effect on cell survival, colony formation or proliferation: Less CaCl2 reduced cell proliferation while higher amounts promoted epidermal differentiation

## CC(C)CCC[C@@H](C)[C@H]1CC[C@H]2[C@@H]3CC=C4C[C@@H](O)CC[C@]4(C)[C@H]3CC[C@]12C [Cholesterol]
HFSCs [3]; serum-free media
  HFSC colony growth: increase colony growth without compromising reductions in lineage plasticity

## C[C@]12CCC(=O)C=C1CC[C@@H]1[C@@H]2[C@@H](O)C[C@@]2(C)[C@H]1CC[C@]2(O)C(=O)CO [Hydrocortisone, hydrocortisone]
HFSCs [3]; media component testing
  effect on cell survival, colony formation or proliferation: not necessary for colony formation or cell proliferation

## Cn1c2ccccc2c2c3c(c4c5ccccc5n(CCC#N)c4c21)CNC3=O [PKCi, Go-6976]
Klf5-EGFP
  reduction of Klf5-EGFP levels: most effective at reducing Klf5-EGFP levels
  effect on lineage plasticity (Klf5-EGFP levels): effective at reducing lineage plasticity without affecting proliferation; also recorded: particularly effective agents impacting lineage plasticity
Klf5-EGFP; titrated 0.1-10 μM
  minimum concentration required to achieve maximal effect on lineage plasticity and HFSC fate: 1 µM
Cultured HFSCs [4]
  KRT6 and Ets2 expression: suppressed
  resolution of lineage plasticity and HFSC behavior: optimally resolved lineage plasticity and favored HFSC behavior
Cultured HFSCs [4]; serum-free conditions
  KLF5 expression: suppressed KLF5 expression
Cultured HFSCs [5]
  Cxcl14 activity: little or no effect on Cxcl14 activity
Human keratinocytes
  KLF5 expression: further suppressed KLF5 expression in both basal and suprabasal layers
  SOX9 levels: upregulated SOX9 levels
Human keratinocytes; listed as G66976
  keratin profile (KRT10, KRT6, KRT15): reductions in KRT10 and KRT6; also recorded: upregulation of KRT15

## C[C@@H](N)[C@H]1CC[C@H](C(=O)Nc2ccncc2)CC1 [Y-27632]
HFSCs [3]; media component testing
  effect on cell survival, colony formation or proliferation: increase cell survival and CFE

## CC1=C(/C=C/C(C)=C/C=C/C(C)=C/C(=O)O)C(C)(C)CCC1 [atRA, all-trans-retinoic acid]
Klf5-EGFP
  reduction of Klf5-EGFP levels: most effective at reducing Klf5-EGFP levels
  effect on lineage plasticity (Klf5-EGFP levels): effective at reducing lineage plasticity without affecting proliferation; also recorded: particularly effective agents impacting lineage plasticity
Cultured HFSCs [4]
  Nfib and Tbx1 expression: restored Nfib and Tbx1 expression
  epidermal markers Sca1 and KRT10: suppressed epidermal markers
  resolution of lineage plasticity and HFSC behavior: optimally resolved lineage plasticity and favored HFSC behavior
Cultured HFSCs [4]; atRA titrated 10 nM-1 μM
  Sox9 mRNA levels: increased Sox9 mRNA levels in a dose-dependent manner
Cultured HFSCs [4]; serum-free conditions
  KLF5 expression: not as effective in reducing KLF5
  SOX9 population: markedly expanded the SOX9 population
Cultured HFSCs [5]
  bulge HFSC identity (Nfatc1, Cxcl14-EGFP reporter): dose-dependent boost in bulge HFSC identity, optimal at low concentration
Cultured HFSCs [5]; listed as RA
  bulge HFSC identity (Nfatc1, Cxcl14-EGFP reporter): increased
Cultured HFSCs [5]; with BMP6
  atRA concentration at which BMP6-mediated Nfatc1 mRNA upregulation was maximal: 10 nM
Cultured HFSCs [6]
  Tcf7l1 (TCF3) and Tcf7l2 (TCF4) expression: promoted expression
Cultured HFSCs [6]; compared among physiological vitamin A derivatives
  Sox9 and Rspo-mediated Lgr5 upregulation: greatest effect on Sox9 and Rspo-mediated Lgr5 upregulation
Cultured HFSCs [6]; with Rspo
  atRA concentration at which Lgr5 mRNA upregulation and EdU incorporation were optimized: 100 nM
  atRA concentration for greatest cooperative effect on Rspo-mediated HFSC proliferation relative to concentration optimal for quiescence: 10 fold
CD34^+ HFSCs
  hair cycle (anagen) entry: facilitated hair cycle entry
CD34^+ HFSCs; listed as RA
  hair cycle (anagen) entry: accelerated the onset of anagen entry
HFSCs [7]
  hair production upon engraftment: efficiently produced hair
HFSCs [2]; topical after wounding
  HFSC lineage plasticity state during wound repair: Fewer HFSCs entered the lineage plasticity state
  restoration of skin barrier (transepidermal water loss, TEWL): clear delay in restoring the skin's barrier
HFSCs [2]; topical after wounding, listed as RA
  HFSC lineage plasticity state during wound repair: accelerated lineage plasticity resolution
HFSCs [2]; topical to wound bed, vitamin A-deficient diet
  hair regeneration and HFSC fate in vitamin A-deficient mice: all of these features were rescued
Human keratinocytes
  KLF5 expression: further suppressed KLF5 expression in both basal and suprabasal layers
  SOX9 levels: upregulated SOX9 levels
  keratin profile (KRT10, KRT6, KRT15): reductions in KRT10 and KRT6; also recorded: upregulation of KRT15
Hair follicle; [8]
  TAC differentiation: prevented TAC differentiation
  hair regrowth: prevented hair regrowth
Hair follicle; topical, mid-anagen
  proportion of HOXC13^+ to GATA3^+ cells: reduced the relative proportion of HOXC13^+ to GATA3^+ cells
  size of the hair bulb: substantially reduced the size of the hair bulb overall

## N[C@@H](CCC(=O)N[C@@H](CS)C(=O)NCC(=O)O)C(=O)O [glutathione]
Klf5-EGFP
  Klf5-EGFP levels: greatest impact when removed

## EGF: epidermal growth factor, mitogen
HFSCs [3]
  concentration at which maximal rates of cell proliferation were reached: 25 ng/mL

B1: BMP4: bone morphogenetic protein (protein, UniProt P12644 293-408, looked up)
Bone morphogenetic protein 4: SPKHHSQRARKKNKNCRRHSLYVDFSDVGWNDWIVAPPGYQAFYCHGDCPFPLADHLNSTNHAIVQTLVNSVNSSIPKACCVPTELSAISMLYLDEYDKVVLKNYQEMVVEGCGCR
Cultured HFSCs [1]; R-spondins, BMP2 and BMP4 together
  lineages formed: directed HFSCs to form the hair shaft and inner root sheath lineages
Cultured HFSCs [1]; alongside Rspo
  Cux1 (IRS) and Cux1 (HS) reporter activity: most effective in upregulating reporter activity

B2: FGF10: fibroblast growth factor 10, native HFSC niche mitogen (protein, UniProt O15520 38-208, looked up)
Fibroblast growth factor 10: QALGQDMVSPEATNSSSSSFSSPSSAGRHVRSYNHLQGDVRWRKLFSFTKYFLKIEKNGKVSGTKKENCPYSILEITSVEIGVVAVKAINSNYYLAMNKKGKLYGSKEFNNDCKLKERIEENGYNTYASFNWQHNGRQMYVALNGKGAPRRGQKTRRKNTSAHFLPMVVHS
Klf5-EGFP
  Klf5-EGFP levels: consistently lower
HFSCs [3]
  concentration at which maximal rates of cell proliferation were reached: 10 ng/mL

B3: BMP6: bone morphogenetic protein; promotes HFSC quiescence (protein, UniProt P22004 375-513, looked up)
Bone morphogenetic protein 6: SASSRRRQQSRNRSTQSQDVARVSSASDYNSSELKTACRKHELYVSFQDLGWQDWIIAPKGYAANYCDGECSFPLNAHMNATNHAIVQTLVHLMNPEYVPKPCCAPTKLNAISVLYFDDNSNVILKKYRNMVVRACGCH
Cultured HFSCs [5]; BMP6 with low concentration of atRA (10 nM)
  cell state: resulted in cell cycle exit and maintained a state resembling quiescence
Cultured HFSCs [5]; compared among BMPs
  cell cycle exit / quiescence (Nfatc1 expression, Cxcl14 promoter reporter): most potent effect
Cultured HFSCs [6]
  Tcf7l1 (TCF3) and Tcf7l2 (TCF4) expression: stimulated
HFSCs [7]
  hair production upon engraftment: efficiently produced hair
